{"source": "PubChem BioAssay AID1963851", "about": "(Molecular Pharmacology Branch, DTP, NCI, 2024);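 note: spheroids exposed to compounds for seven days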;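 for viability, T/C: 100% = DMSO vehicle control viability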", "system": "188146-221-R-J1-PDC complex spheroid viability", "assay": "Anticancer human tumor 188146-221-R-J1-PDC patient-derived colon adenocarcinoma cell line growth inhibition [POLQ]", "conditions": "for IC50: curve of first compound; for viability, T/C: stronger effect = lower value", "method_in_brief": "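Complex spheroid viability model combining PDC tumour cells with endothelial (HUVEC) and MSC stromal cells. Novobiocin, ART-558 or RP6685 were tested singly and in combination with standard and investigational anticancer drugs. Each was titrated in half-log steps from near clinical Cmax, or from 10 microM where Cmax was unknown.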", "key": {"[1]": {"conditions": "second compound 0.0316 µM, first compound 0.0316 µM"}, "[2]": {"conditions": "second compound 0.0316 µM, first compound 0.1 µM"}, "[3]": {"conditions": "second compound 0.0316 µM, first compound 0.316 µM"}, "[4]": {"conditions": "second compound 0.0316 µM, first compound 1 µM"}, "[5]": {"conditions": "second compound 0.1 µM, first compound 0.0316 µM"}, "[6]": {"conditions": "second compound 0.1 µM, first compound 0.1 µM"}, "[7]": {"conditions": "second compound 0.1 µM, first compound 0.316 µM"}, "[8]": {"conditions": "second compound 0.1 µM, first compound 1 µM"}, "[9]": {"conditions": "second compound 0.316 µM, first compound 0.0316 µM"}, "[10]": {"conditions": "second compound 0.316 µM, first compound 0.1 µM"}, "[11]": {"conditions": "second compound 0.316 µM, first compound 0.316 µM"}, "[12]": {"conditions": "second compound 0.316 µM, first compound 1 µM"}, "[13]": {"conditions": "second compound 1 µM, first compound 0.0316 µM"}, "[14]": {"conditions": "second compound 1 µM, first compound 0.1 µM"}, "[15]": {"conditions": "second compound 1 µM, first compound 0.316 µM"}, "[16]": {"conditions": "second compound 1 µM, first compound 1 µM"}, "[17]": {"conditions": "second compound 3.16 µM, first compound 0.0316 µM"}, "[18]": {"conditions": "second compound 3.16 µM, first compound 0.1 µM"}, "[19]": {"conditions": "second compound 3.16 µM, first compound 0.316 µM"}, "[20]": {"conditions": "second compound 3.16 µM, first compound 1 µM"}, "[21]": {"conditions": "second compound 10 µM, first compound 0.0316 µM"}, "[22]": {"conditions": "second compound 10 µM, first compound 0.1 µM"}, "[23]": {"conditions": "second compound 10 µM, first compound 0.316 µM"}, "[24]": {"conditions": "second compound 10 µM, first compound 1 µM"}}, "data": [{"smiles": "C#Cc1c(F)ccc2cc(O)cc(-c3ncc4c(N5CC6CCC(C5)N6)nc(OCC56CCCN5CC(F)C6)nc4c3F)c12", "note": "(centres undefined) + Nc1ccc(C#CCN(C(=O)Cc2ncc(C(F)(F)F)cc2C(F)(F)F)c2ccc(F)cc2)nn1", "values": [{"measurement": "IC50", "setting": "second compound 0.0316 µM", "result": "> 10", "unit": "µM"}, {"measurement": "IC50", "setting": "second compound 0.1 µM", "result": "> 10", "unit": "µM"}, {"measurement": "IC50", "setting": "second compound 0.316 µM", "result": "> 10", "unit": "µM"}, {"measurement": "IC50", "setting": "second compound 1 µM", "result": "> 10", "unit": "µM"}, {"measurement": "IC50", "setting": "second compound 3.16 µM", "result": "> 10", "unit": "µM"}, {"measurement": "IC50", "setting": "second compound 10 µM", "result": "> 10", "unit": "µM"}, {"measurement": "viability, T/C", "setting": "[1]", "result": 94.3, "unit": "%"}, {"measurement": "viability, T/C", "setting": "[2]", "result": 100, "unit": "%"}, {"measurement": "viability, T/C", "setting": "[3]", "result": 98.2, "unit": "%"}, {"measurement": "viability, T/C", "setting": "[4]", "result": 89.7, "unit": "%"}, {"measurement": "viability, T/C", "setting": "second compound 0.0316 µM, first compound 3.16 µM", "result": 83.2, "unit": "%"}, {"measurement": "viability, T/C", "setting": "second compound 0.0316 µM, first compound 10 µM", "result": 89.4, "unit": "%"}, {"measurement": "viability, T/C", "setting": "[5]", "result": 99.9, "unit": "%"}, {"measurement": "viability, T/C", "setting": "[6]", "result": 105, "unit": "%"}, {"measurement": "viability, T/C", "setting": "[7]", "result": 95.5, "unit": "%"}, {"measurement": "viability, T/C", "setting": "[8]", "result": 95.1, "unit": "%"}, {"measurement": "viability, T/C", "setting": "second compound 0.1 µM, first compound 3.16 µM", "result": 89.9, "unit": "%"}, {"measurement": "viability, T/C", "setting": "second compound 0.1 µM, first compound 10 µM", "result": 103, "unit": "%"}, {"measurement": "viability, T/C", "setting": "[9]", "result": 103, "unit": "%"}, {"measurement": "viability, T/C", "setting": "[10]", "result": 83.5, "unit": "%"}, {"measurement": "viability, T/C", "setting": "[11]", "result": 100, "unit": "%"}, {"measurement": "viability, T/C", "setting": "[12]", "result": 96.8, "unit": "%"}, {"measurement": "viability, T/C", "setting": "second compound 0.316 µM, first compound 3.16 µM", "result": 87.8, "unit": "%"}, {"measurement": "viability, T/C", "setting": "second compound 0.316 µM, first compound 10 µM", "result": 86.6, "unit": "%"}, {"measurement": "viability, T/C", "setting": "[13]", "result": 88.6, "unit": "%"}, {"measurement": "viability, T/C", "setting": "[14]", "result": 86.7, "unit": "%"}, {"measurement": "viability, T/C", "setting": "[15]", "result": 98.8, "unit": "%"}, {"measurement": "viability, T/C", "setting": "[16]", "result": 92.3, "unit": "%"}, {"measurement": "viability, T/C", "setting": "second compound 1 µM, first compound 3.16 µM", "result": 91.3, "unit": "%"}, {"measurement": "viability, T/C", "setting": "second compound 1 µM, first compound 10 µM", "result": 80.8, "unit": "%"}, {"measurement": "viability, T/C", "setting": "[17]", "result": 106, "unit": "%"}, {"measurement": "viability, T/C", "setting": "[18]", "result": 102, "unit": "%"}, {"measurement": "viability, T/C", "setting": "[19]", "result": 102, "unit": "%"}, {"measurement": "viability, T/C", "setting": "[20]", "result": 95.9, "unit": "%"}, {"measurement": "viability, T/C", "setting": "second compound 3.16 µM, first compound 3.16 µM", "result": 100, "unit": "%"}, {"measurement": "viability, T/C", "setting": "second compound 3.16 µM, first compound 10 µM", "result": 86.5, "unit": "%"}, {"measurement": "viability, T/C", "setting": "[21]", "result": 102, "unit": "%"}, {"measurement": "viability, T/C", "setting": "[22]", "result": 93.5, "unit": "%"}, {"measurement": "viability, T/C", "setting": "[23]", "result": 87.1, "unit": "%"}, {"measurement": "viability, T/C", "setting": "[24]", "result": 105, "unit": "%"}, {"measurement": "viability, T/C", "setting": "second compound 10 µM, first compound 3.16 µM", "result": 106, "unit": "%"}, {"measurement": "viability, T/C", "setting": "second compound 10 µM, first compound 10 µM", "result": 89.5, "unit": "%"}]}, {"smiles": "C=CCn1c(=O)c2cnc(Nc3ccc(N4CCN(C)CC4)cc3)nc2n1-c1cccc(C(C)(C)O)n1", "note": "+ COC1C(OC(N)=O)C(O)C(Oc2ccc3c(O)c(NC(=O)c4ccc(O)c(CC=C(C)C)c4)c(=O)oc3c2C)OC1(C)C", "values": [{"measurement": "IC50", "setting": "second compound 0.0316 µM", "result": "> 1", "unit": "µM"}, {"measurement": "IC50", "setting": "second compound 0.1 µM", "result": 0.933, "unit": "µM"}, {"measurement": "IC50", "setting": "second compound 0.316 µM", "result": "> 1", "unit": "µM"}, {"measurement": "IC50", "setting": "second compound 1 µM", "result": "> 1", "unit": "µM"}, {"measurement": "IC50", "setting": "second compound 3.16 µM", "result": "> 1", "unit": "µM"}, {"measurement": "IC50", "setting": "second compound 10 µM", "result": 0.908, "unit": "µM"}, {"measurement": "viability, T/C", "setting": "second compound 0.0316 µM, first compound 0.00316 µM", "result": 106, "unit": "%"}, {"measurement": "viability, T/C", "setting": "second compound 0.0316 µM, first compound 0.01 µM", "result": 99.2, "unit": "%"}, {"measurement": "viability, T/C", "setting": "[1]", "result": 103, "unit": "%"}, {"measurement": "viability, T/C", "setting": "[2]", "result": 101, "unit": "%"}, {"measurement": "viability, T/C", "setting": "[3]", "result": 98, "unit": "%"}, {"measurement": "viability, T/C", "setting": "[4]", "result": 51.5, "unit": "%"}, {"measurement": "viability, T/C", "setting": "second compound 0.1 µM, first compound 0.00316 µM", "result": 111, "unit": "%"}, {"measurement": "viability, T/C", "setting": "second compound 0.1 µM, first compound 0.01 µM", "result": 106, "unit": "%"}, {"measurement": "viability, T/C", "setting": "[5]", "result": 101, "unit": "%"}, {"measurement": "viability, T/C", "setting": "[6]", "result": 98, "unit": "%"}, {"measurement": "viability, T/C", "setting": "[7]", "result": 91.5, "unit": "%"}, {"measurement": "viability, T/C", "setting": "[8]", "result": 46.8, "unit": "%"}, {"measurement": "viability, T/C", "setting": "second compound 0.316 µM, first compound 0.00316 µM", "result": 85.1, "unit": "%"}, {"measurement": "viability, T/C", "setting": "second compound 0.316 µM, first compound 0.01 µM", "result": 106, "unit": "%"}, {"measurement": "viability, T/C", "setting": "[9]", "result": 96.5, "unit": "%"}, {"measurement": "viability, T/C", "setting": "[10]", "result": 101, "unit": "%"}, {"measurement": "viability, T/C", "setting": "[11]", "result": 97.6, "unit": "%"}, {"measurement": "viability, T/C", "setting": "[12]", "result": 56.3, "unit": "%"}, {"measurement": "viability, T/C", "setting": "second compound 1 µM, first compound 0.00316 µM", "result": 108, "unit": "%"}, {"measurement": "viability, T/C", "setting": "second compound 1 µM, first compound 0.01 µM", "result": 100, "unit": "%"}, {"measurement": "viability, T/C", "setting": "[13]", "result": 102, "unit": "%"}, {"measurement": "viability, T/C", "setting": "[14]", "result": 95.9, "unit": "%"}, {"measurement": "viability, T/C", "setting": "[15]", "result": 87.7, "unit": "%"}, {"measurement": "viability, T/C", "setting": "[16]", "result": 55.2, "unit": "%"}, {"measurement": "viability, T/C", "setting": "second compound 3.16 µM, first compound 0.00316 µM", "result": 102, "unit": "%"}, {"measurement": "viability, T/C", "setting": "second compound 3.16 µM, first compound 0.01 µM", "result": 98.9, "unit": "%"}, {"measurement": "viability, T/C", "setting": "[17]", "result": 108, "unit": "%"}, {"measurement": "viability, T/C", "setting": "[18]", "result": 98.4, "unit": "%"}, {"measurement": "viability, T/C", "setting": "[19]", "result": 98, "unit": "%"}, {"measurement": "viability, T/C", "setting": "[20]", "result": 56.3, "unit": "%"}, {"measurement": "viability, T/C", "setting": "second compound 10 µM, first compound 0.00316 µM", "result": 109, "unit": "%"}, {"measurement": "viability, T/C", "setting": "second compound 10 µM, first compound 0.01 µM", "result": 96.9, "unit": "%"}, {"measurement": "viability, T/C", "setting": "[21]", "result": 100, "unit": "%"}, {"measurement": "viability, T/C", "setting": "[22]", "result": 100, "unit": "%"}, {"measurement": "viability, T/C", "setting": "[23]", "result": 98.1, "unit": "%"}, {"measurement": "viability, T/C", "setting": "[24]", "result": 45.6, "unit": "%"}]}]}
